One test addresses T1, P25205 (Homo sapiens, UniProt P25205).
T1 construct: Probe-modified proteins from the soluble fraction were conjugated to a desthiobiotin-azide tag; endogenous in cells; host or cells: DM93 (SILAC)
T1 sequence (P25205 1-808): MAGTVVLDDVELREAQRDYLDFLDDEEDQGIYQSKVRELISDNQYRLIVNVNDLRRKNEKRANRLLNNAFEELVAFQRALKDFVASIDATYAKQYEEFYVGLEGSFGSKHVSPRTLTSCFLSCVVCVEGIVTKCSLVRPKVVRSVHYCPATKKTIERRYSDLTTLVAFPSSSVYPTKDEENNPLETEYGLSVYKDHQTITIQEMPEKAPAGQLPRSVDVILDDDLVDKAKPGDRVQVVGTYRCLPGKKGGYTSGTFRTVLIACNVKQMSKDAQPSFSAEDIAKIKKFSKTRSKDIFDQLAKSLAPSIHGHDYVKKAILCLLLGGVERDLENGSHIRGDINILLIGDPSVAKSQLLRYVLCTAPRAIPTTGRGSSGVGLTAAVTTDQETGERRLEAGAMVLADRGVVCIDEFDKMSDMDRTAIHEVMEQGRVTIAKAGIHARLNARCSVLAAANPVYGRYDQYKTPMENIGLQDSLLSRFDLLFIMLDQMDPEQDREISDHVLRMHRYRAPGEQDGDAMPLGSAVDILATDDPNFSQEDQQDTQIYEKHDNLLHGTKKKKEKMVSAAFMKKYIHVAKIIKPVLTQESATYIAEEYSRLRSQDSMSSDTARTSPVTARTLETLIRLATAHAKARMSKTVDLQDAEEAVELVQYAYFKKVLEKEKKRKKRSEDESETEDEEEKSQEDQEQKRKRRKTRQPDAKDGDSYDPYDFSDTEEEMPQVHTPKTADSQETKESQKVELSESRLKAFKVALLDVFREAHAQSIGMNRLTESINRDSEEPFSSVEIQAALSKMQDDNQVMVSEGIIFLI
The test is described as follows: SILAC LC-MS ABPP. It counts as cell-based. Conditions: 25 μM 2 h, live DM93 cells. As for the experimental part: (§1) Cells were grown to 90-95% confluence before being washed once with warm, sterile DPBS (1×, 5 mL), followed by addition of 10 mL of serum-free media (supplemented with 1% L-glutamine) containing either DMSO or SuTEx fragment (in DMSO) was added. Light cells were treated with DMSO vehicle while the heavy cells were treated with DMSO or SuTEx fragment (in DMSO) and incubated for 2 hrs. After 2 hrs, the cells were treated with SuTEx alkyne probe (HHS475, 10 μL of 1000× DMSO stock) and incubated for an additional 2 hrs. The media was aspirated and cells washed with cold PBS (5 mL) and harvested. Cells were spun at 500×g for 5 min at 4° C. followed by removal of supernatant. Pellets were resuspended in 1 mL of cold DPBS and spun at 1,400×g for 3 min at 4° C. followed by removal of supernatant. The cells were lysed in PBS by sonication and fractionated (100,000×g, 45 min, 4° C.).The light and heavy soluble fractions were diluted to 2.3 mg/mL in PBS and 432 μL were used for analysis (1 mg total protein). The probe-modified proteomes were conjugated to desthiobiotin-PEG3-azide (10 μl of 10 mM stock in DMSO; 200 μM final concentration) using TCEP (10 μl of fresh 50 mM stock in water, 1 mM final concentration), TBTA ligand (33 μl of a 1.7 mM 4:1 t-butanol/DMSO stock, 100 μM final concentration) and CuSO4 (10 μl of 50 mM stock, 1 mM final concentration). Samples were vortexed to mix and incubated for 1 hr at room temperature. The heavy and light proteomes were mixed 1:1 and the subsequent steps, including LC-MS/MS data analysis, were performed as previously described^[8a].
(§2) Coupling cell-based screens with chemical proteomics can facilitate the identification of target protein and binding sites that engage and are irreversibly modified by covalent ligands^[12]. In these assays, covalent ligands block SuTEx activity-based probe (ABP) labeling at protein sites, and the competition of probe labeling can be used to quantify potency and selectivity across the proteome^[10a]. To facilitate quantitative chemical proteomics, DM93 melanoma cells were cultured using stable isotopic labeling by amino acids in cell culture (SILAC)^[13]. Cells cultured in “light” media were treated with dimethyl sulfoxide (DMSO) vehicle while cells cultured in “heavy” media were treated with SuTEx ligand (25 μM, 2 hours, 37° C.). Next, cells were treated with HHS-475 probe (100 μM, 2 hours, 37° C.) followed by lysis and processing of proteomes for analysis. Probe-modified proteins from the soluble fraction were conjugated to a desthiobiotin-azide tag by copper-catalyzed azide-alkyne cycloaddition (CuAAC)^[14] followed by mixing of the light and heavy proteomes. The combined proteomes were digested with trypsin protease to produce probe-modified peptides, followed by enrichment and purification by avidin affinity chromatography. Probe-modified peptides were resolved, identified, and quantified by high-resolution liquid chromatography-tandem mass spectrometry (LC-MS/MS). Resultant data were analyzed as previously described^[8a, 10a]. Table 2, below, lists sites of modification targeted by sulfonyl-triazole compounds HHS-0101, HHS-0201, HHS-0301, HHS-0401, and HHS-0701. The format of the table is as follows: protein Uniprot accession number (see uniprot.org); tyrosine site (amino acid position) modified; treatment (sulfonyl-triazole compound identification number, followed by Y (where if multiple compounds modify the same site, the compounds are separated by vertical lines).

Another test addresses T2, Q9Y6D5 (Homo sapiens, UniProt Q9Y6D5).
T2 construct: endogenous in cells; host or cells: DM93 cells (SILAC)
As to the kind of experiment: SILAC LC-MS ABPP. In kind it is cell-based. Conditions: 25 μM 2 h, live DM93 cells. The procedure: as §1, §2

Structures are written as SMILES.

T2 sequence (Q9Y6D5 whole entry): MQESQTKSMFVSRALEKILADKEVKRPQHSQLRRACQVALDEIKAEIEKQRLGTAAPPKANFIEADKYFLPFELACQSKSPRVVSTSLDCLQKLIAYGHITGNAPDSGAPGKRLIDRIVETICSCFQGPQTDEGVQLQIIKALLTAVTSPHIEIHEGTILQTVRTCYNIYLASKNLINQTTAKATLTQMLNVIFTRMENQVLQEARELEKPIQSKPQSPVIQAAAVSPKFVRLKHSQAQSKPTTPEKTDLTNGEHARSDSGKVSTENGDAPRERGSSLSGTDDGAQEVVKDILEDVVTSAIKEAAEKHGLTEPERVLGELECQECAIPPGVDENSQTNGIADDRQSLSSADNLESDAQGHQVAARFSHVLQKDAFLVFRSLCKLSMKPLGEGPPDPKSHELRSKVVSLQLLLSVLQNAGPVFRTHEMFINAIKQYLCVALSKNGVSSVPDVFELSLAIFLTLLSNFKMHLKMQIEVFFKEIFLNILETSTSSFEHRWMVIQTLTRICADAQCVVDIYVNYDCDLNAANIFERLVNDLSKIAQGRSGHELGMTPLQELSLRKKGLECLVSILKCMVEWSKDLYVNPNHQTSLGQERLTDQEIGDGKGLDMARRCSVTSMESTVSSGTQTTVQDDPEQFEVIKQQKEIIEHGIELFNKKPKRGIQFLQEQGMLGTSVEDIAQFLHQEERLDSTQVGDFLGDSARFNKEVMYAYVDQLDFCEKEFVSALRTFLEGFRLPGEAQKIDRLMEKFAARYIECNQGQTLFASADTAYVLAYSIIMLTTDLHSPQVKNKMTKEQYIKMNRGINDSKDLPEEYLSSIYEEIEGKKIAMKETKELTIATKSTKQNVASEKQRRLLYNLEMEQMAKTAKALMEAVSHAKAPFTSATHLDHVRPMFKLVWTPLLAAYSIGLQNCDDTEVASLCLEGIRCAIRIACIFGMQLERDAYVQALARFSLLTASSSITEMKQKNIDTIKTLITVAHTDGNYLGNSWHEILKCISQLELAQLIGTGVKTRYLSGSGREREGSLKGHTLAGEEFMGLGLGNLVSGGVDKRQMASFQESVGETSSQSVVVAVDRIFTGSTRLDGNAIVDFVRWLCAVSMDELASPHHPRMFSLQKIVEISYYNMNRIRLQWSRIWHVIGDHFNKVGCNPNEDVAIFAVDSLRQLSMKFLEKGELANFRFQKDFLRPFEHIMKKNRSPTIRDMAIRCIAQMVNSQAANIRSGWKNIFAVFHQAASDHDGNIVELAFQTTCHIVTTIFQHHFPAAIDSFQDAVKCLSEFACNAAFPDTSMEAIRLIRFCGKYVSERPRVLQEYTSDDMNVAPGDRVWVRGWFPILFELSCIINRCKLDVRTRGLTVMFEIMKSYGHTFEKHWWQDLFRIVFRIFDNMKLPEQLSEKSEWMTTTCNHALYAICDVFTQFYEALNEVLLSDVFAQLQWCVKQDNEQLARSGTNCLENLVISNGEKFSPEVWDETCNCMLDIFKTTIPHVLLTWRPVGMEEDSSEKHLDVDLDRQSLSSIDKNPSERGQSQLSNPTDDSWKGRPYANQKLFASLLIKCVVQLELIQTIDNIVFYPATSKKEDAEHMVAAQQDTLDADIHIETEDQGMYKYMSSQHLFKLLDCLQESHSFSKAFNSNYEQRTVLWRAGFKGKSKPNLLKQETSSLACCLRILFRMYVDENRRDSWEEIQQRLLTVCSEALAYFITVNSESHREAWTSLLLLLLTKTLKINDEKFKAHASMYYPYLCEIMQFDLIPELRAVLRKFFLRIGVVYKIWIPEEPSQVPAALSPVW

`O=C(NC1CCCCC1)c1ccc(S(=O)(=O)n2cncn2)cc1` [HHS-0301, 4-((1H-1,2,4-triazol-1-yl)sulfonyl)-N-cyclohexylbenzamide]: the “liganded tyrosine site 147” value at P25205 is on record as “HHS0301.Y (tyrosine sites that showed >80% reductions (SR >5) in probe labeling in cells treated with compounds (liganded sites))”.
Regarding `O=C(c1ccc(S(=O)(=O)n2cncn2)cc1)N1CCC(c2ccccc2)CC1` [HHS-0701, (4-((1H-1,2,4-triazol-1-yl)sulfonyl)phenyl)(4-phenylpiperidin-1-yl)methanone], on P25205, the “liganded tyrosine site 159” value is “HHS0701.Y (tyrosine sites that showed >80% reductions (SR >5) in probe labeling in cells treated with compounds (liganded sites))” and the “liganded tyrosine site 188” value was “HHS0701.Y (tyrosine sites that showed >80% reductions (SR >5) in probe labeling in cells treated with compounds (liganded sites))”.
Regarding `O=C(NCc1ccccc1)c1ccc(S(=O)(=O)n2cncn2)cc1` [HHS-0401, 4-((1H-1,2,4-triazol-1-yl)sulfonyl)-N-benzylbenzamide], on Q9Y6D5, the “liganded tyrosine site 97” value is “HHS0401.Y (tyrosine sites that showed >80% reductions (SR >5) in probe labeling in cells treated with compounds (liganded sites))”.
Consider `O=C(NC1CC1)c1ccc(S(=O)(=O)n2cncn2)cc1` [HHS-0101, 4-((1H-1,2,4-triazol-1-yl)sulfonyl)-N-cyclopropylbenzamide], for which the “liganded tyrosine site 1632” value on Q9Y6D5 is “HHS0101.Y|HHS0301.Y|HHS0701.Y (tyrosine sites that showed >80% reductions (SR >5) in probe labeling in cells treated with compounds (liganded sites))”.
